Data reported in patent US6782895B2, “Compositions comprising at least one hydroxide compound and at least one complexing agent, and methods for using the same” (L'Oreal, S.A., priority 2001, dated 2004).
Where a name gives a salt, the structure may show the parent alone. Read-outs that look alike come from different tables or passages of the source.

Legend:
[1] = Solubility; assay type: physicochemical
[2] = Relaxing efficiency (% RE) of hair swatch after treatment, 24 hours at 90% RH
Description: A naturally kinky hair swatch was relaxed using a composition comprising at least one hydroxide composition comprising at least one hydroxide compound and at least one activating composition comprising at least one complexing agent according to the present invention. The relaxed hair swatch was then rinsed, shampooed, and then placed in the humidity chamber at 90% Relative Humidity (% RH) for 24 hours. The percent Relaxing Efficiency (% RE) is defined as:
Lf=length of the relaxed hair after 24 hours at 90% RH
Lt=length of the hair at the straight configuration
This mucic acid sodium salt slurry was mixed with 6 g of a 7% calcium hydroxide cream. The calcium hydroxide cream contained the following ingredients by weight, relative to the total weight of the cream:
The mixture of mucic acid sodium salt slurry and calcium hydroxide cream was applied to naturally kinky hair for 30 minutes. The treated hair was shampooed and then placed in a humidity chamber at 90% RH for 24 hours.

[3] = for Appearance / pH: 3 g VERSENE 220 in 97 g water
Description: The present invention also provides for a simple screening test, which may be used to determine the applicability of a complexing agent for use as the at least one complexing agent in the lanthionizing compositions of the present invention.
A screening test to determine the applicability of a complexing agent for use in the lanthionizing compositions of the present invention was carried out.

[4] = Generation of hydroxide ions from mucic acid sodium salt slurry and calcium hydroxide (pH measurement); assay type: physicochemical; conditions: 7 g mucic acid + 2.66 g sodium hydroxide slurry
Description: An incremental amount of calcium hydroxide was then added slowly to the slurry of mucic acid sodium salt, and the pH was measured.

## O=C(O)C(O)C(O)C(O)C(O)C(=O)O (stereo not shown) [Mucic Acid, 1,2,3,4-tetrahydroxy-1,4-butane dicarboxylic acid]
[1]; most organic solvents, for example alcohols and ethers
  solubility in organic solvents: insoluble
[1]; water at high pH
  solubility in water (salt form): about 0.7%
[2]; curly hair, 6 g 7% calcium hydroxide cream, 1:0.7 molar ratio calcium hydroxide:mucic acid, 2 g water in mucic acid salt slurry
  % RE: 42%
[2]; curly hair, 6 g 7% calcium hydroxide cream, 1:0.7 molar ratio calcium hydroxide:mucic acid, 3 g water in mucic acid salt slurry
  % RE: 88%
[2]; curly hair, 6 g 7% calcium hydroxide cream, 1:0.7 molar ratio calcium hydroxide:mucic acid, 4 g water in mucic acid salt slurry
  % RE: 95%
[2]; curly hair, 6 g 7% calcium hydroxide cream, 1:0.7 molar ratio calcium hydroxide:mucic acid, 5 g water in mucic acid salt slurry
  % RE: 98%
[2]; curly hair, 6 g 7% calcium hydroxide cream, 1:0.7 molar ratio calcium hydroxide:mucic acid, 6 g water in mucic acid salt slurry
  % RE: 99%
[2]; naturally kinky hair, 30 minutes, 6 g 7% Ca(OH)2 cream, 0.36 g mucic acid, 0.27 g 50% NaOH, 3 g water, molar ratio calcium hydroxide:mucic acid 1:0.3
  % RE: 54%
[2]; naturally kinky hair, 30 minutes, 6 g 7% Ca(OH)2 cream, 0.48 g mucic acid, 0.37 g 50% NaOH, 3 g water, molar ratio calcium hydroxide:mucic acid 1:0.4
  % RE: 81%
[2]; naturally kinky hair, 30 minutes, 6 g 7% Ca(OH)2 cream, 0.60 g mucic acid, 0.46 g 50% NaOH, 3 g water, molar ratio calcium hydroxide:mucic acid 1:0.5
  % RE: 80%
[2]; naturally kinky hair, 30 minutes, 6 g 7% Ca(OH)2 cream, 0.84 g mucic acid, 0.64 g 50% NaOH, 3 g water, molar ratio calcium hydroxide:mucic acid 1:0.7
  % RE: 86%
[2]; naturally kinky hair, 30 minutes, 6 g 7% Ca(OH)2 cream, 1.19 g mucic acid, 0.9 g 50% NaOH, 3 g water, molar ratio calcium hydroxide:mucic acid 1:1
  % RE: 21%

## O=C([O-])CN(CCN(CC(=O)[O-])CC(=O)[O-])CC(=O)[O-].[Na+].[Na+].[Na+].[Na+] [Na4EDTA, tetrasodium EDTA]
[3]; 3 g VERSENE 220 (0.0066 moles) in 97 g water
  amount of Ca(OH)2 dissolved in the solution at the end of the reaction: 0.60 g
[3]; 0 g Ca(OH)2 added
  Appearance: Clear
  pH: 11.62
[3]; 0.20 g Ca(OH)2 added
  Appearance: Clear
  pH: 13.32
[3]; 0.40 g Ca(OH)2 added
  Appearance: Clear
  pH: 13.52
[3]; 0.60 g Ca(OH)2 added
  Appearance: Clear
  pH: 13.59
[3]; 0.65 g Ca(OH)2 added
  Appearance: Cloudy
  pH: 13.63

## O=C(O)[C@@H](O)[C@H](O)[C@H](O)[C@@H](O)C(=O)O [mucic acid sodium salt]
[1]; mucic acid sodium salt mixed with calcium hydroxide
  observation upon mixing with calcium hydroxide: precipitation was observed
[4]; 0.0 g calcium hydroxide added
  pH: 12.39
[4]; 0.2 g calcium hydroxide added
  pH: 13.02
[4]; 0.4 g calcium hydroxide added
  pH: 13.32
[4]; 0.6 g calcium hydroxide added
  pH: 13.46
[4]; 0.8 g calcium hydroxide added
  pH: 13.51
[4]; 1.0 g calcium hydroxide added
  pH: 13.53
[4]; 1.2 g calcium hydroxide added
  pH: 13.55
